Measured values published in patent US12029768B2, “Probiotics useful for eradicating helicobacter pylori infection” (DACF S.r.l., priority 2018, dated 2024).
Where two headings read alike, the source gives them in different places.

Tested on: H. pylori
Assay: Checkerboard method, adjuvant effect of probiotic supernatant on antibiotic MIC/MBC
Format: cell-based, Helicobacter pylori
Details: for MBC / MIC: Helicobacter pylori; for MBC: read-out: MBC towards the H. pylori strain; for MIC: read-out: MIC towards the H. pylori strain
[1] = probiotic supernatant (L. acidophilus La-14) added to antibiotic

Compound	MBC (antibiotic alone) [mg/L]	MIC (antibiotic alone) [mg/L]	MBC [1] [mg/L]	MIC [1] [mg/L]	MIC with probiotic supernatant as fraction of the original MIC [1]	increase of antibiotic activity against H. pylori [1] [folds]
CC1(C)S[C@@H]2[C@H](NC(=O)[C@H](N)c3ccc(O)cc3)C(=O)N2[C@H]1C(=O)O [Amoxicillin, amoxicillin]	0.5	0.25	0.0005	0.00025	1/1000	1000
CC[C@H]1OC(=O)[C@H](C)[C@@H](O[C@H]2C[C@@](C)(OC)[C@@H](O)[C@H](C)O2)[C@H](C)[C@@H](O[C@@H]2O[C@H](C)C[C@H](N(C)C)[C@H]2O)[C@](C)(OC)C[C@@H](C)C(=O)[C@H](C)[C@@H](O)[C@]1(C)O [Clarithromycin, clarithromycin]	24	12	0.25	0.125	1/100	100
